Experiment: Formation of adducts with MDA, kinetic study by HPLC
Type: physicochemical
Conditions: compound 10 mM, MDA 20 mM, 37° C., after 24 h of reaction; no HPLC separation, trend
Method: The compounds to be tested are incubated at 37° C. in the presence of MGO or of MDA. A kinetic study aiming to report on the formation of adducts with the MGO or MDA is then carried out via HPLC analysis.
The compounds to be tested (30 μmol) are dissolved in PBS (1.5 mL). An aqueous solution (qsp 1.25 mL) of MGO at 40% in water (250 μmol) is then prepared and in parallel, MDA bis-(diOEt)-acetal (250 μmol) is set to react with a solution of HCl 1N (2 eq) in water (qsp 1.25 mL) for 1 h at room temperature. An aqueous solution of NaOH 0.05N is also required to neutralise the reaction medium (5 mL).
The solution of the compound to be tested (625 μL—final concentration in the medium=10 mM) is then set to react with the solution of MGO or of MDA prepared extemporaneously (125 μL—final concentration in the medium=20 mM) in the presence of NaOH 0.05 N (0.5 mL). […]
A sampling of each mixture (100 μL) is taken at regular intervals of time (0.25; 0.5; 1; 5 and 24 h) and stored at −20° C. in order to stop the reaction. […] The proportion of adducts formed with the MGO or MDA (generally, tR=4.1 to 6.8 min) is then measured in relation to the quantity of remaining free scavenger (generally, tR=0.8 to 4.6 min) after measurement of the area under the curve of the corresponding peaks on the UV spectrum (measurements taken for a representative sample).

COc1cc(/C=C/C(=O)N2CCN(C(=O)CCC(N)CN)CC2)ccc1O (stereo not shown) [Compound 29a, (E)-4,5-diamino-1-(4-(3-(4-hydroxy-3-methoxyphenyl)acryloyl)piperazin-1-yl)pentan-1-one]
adducts with the MDA with regards to the free scavenger: majority presence of AdD
